Assay results: ChEMBL document CHEMBL3865833, “Functional induction of P-glycoprotein efflux pump by phenyl benzenesulfonamides: Synthesis and biological evaluation of T0901317 analogs” (Eur J Med Chem, 2016)
Calls of active or inactive are those of the source. The calls are words filed in the database; no cut-off is given here.

Legend:
[1] = system: LS180; assay: (§1) Activation of PXR/LXR in human LS180 cells assessed as induction of P-gp measured as intracellular accumulation of Rhodamine-123 at 5 uM preincubated for 48 hrs followed by 40 mins incubation with HANKS buffer and subsequent addition of Rhodamine-123 measured after 90 mins by fluorescence analysis relative to control; format: cell-based
[2] = Cytotoxicity against human LS180 cells assessed as effect on cell viability at 50 uM measured after 24 hrs by MTT assay relative to control; format: toxicity, cell-based; conditions: read-out: Activity
[3] = Cytotoxicity against human SH-SY5Y cells assessed as effect on cell viability at 50 uM measured after 24 hrs by MTT assay relative to control; format: toxicity, cell-based; conditions: read-out: Activity
[4] = system: LS180; assay: as §1, with “by measuring decrease in” for “measured as”, “0.3” for “5”, “assay” for “analysis relative to control”; format: cell-based
[5] = Neuroprotective activity in human SH-SY5Y cells assessed as decrease in amyloid beta-induced cytotoxicity measured as cell viability at 5 uM pretreated for 30 mins prior amyloid beta-challenge measured after 48 hrs by MTT assay (reference value: 68%); format: functional
[6] = Therapeutic index, ratio of effective concentration for cytotoxicity in human LS180 cells to effective concentration for activation of PXR/LXR in human LS180 cells assessed as induction of P-gp; format: cell-based; conditions: read-out: TI
[7] = Therapeutic index, ratio of effective concentration for cytotoxicity in human SH-SY5Y cells to effective concentration for activation of PXR/LXR in human LS180 cells assessed as induction of P-gp; format: cell-based; conditions: read-out: TI
[8] = Cytotoxicity against human LS180 cells assessed as effect on cell viability measured after 24 hrs by MTT assay; format: toxicity, cell-based
[9] = Cytotoxicity against human SH-SY5Y cells assessed as effect on cell viability measured after 24 hrs by MTT assay; format: toxicity, cell-based
[10] = system: LS180; assay: Activation of PXR/LXR in human LS180 cells assessed as induction of P-gp at 5 uM measured after 24 hrs by Western blot analysis; format: cell-based
[11] = system: LS180; assay: as §1, with “by measuring” for “measured as”, “10” for “5”, “assay” for “analysis”; format: cell-based

Row | SMILES | Activity [1] [%] | viability at 24 h, 50 µM [2] [%] | viability at 24 h, 50 µM [3] [%] | Activity [4] | Activity [5] [%] | selectivity ratio [6] | selectivity ratio [7] | IC50 at 24 h [8] [µM] | IC50 at 24 h [9] [µM] | Activity [10] | Activity [11] [%]
1 | O=S(=O)(c1ccccc1)N(Cc1cn(-c2c(F)cccc2F)nn1)c1ccc(C(O)(C(F)(F)F)C(F)(F)F)cc1 | 65.1 | 74.5 | 125 | Active | 75 | 10 | 10 |  |  |  | 
2 | CC(=O)c1ccc(N(Cc2cn(-c3ccc(C(F)(F)F)cc3)nn2)S(=O)(=O)c2ccccc2)cc1 | 48.4 | 76.7 | 108 | Active | 79 | > 166 | > 166 | > 50 | > 50 | Active | 
3 | CO[C@H]1/C=C/O[C@@]2(C)Oc3c(C)c(O)c4c(O)c(c(/C=N/N5CCN(C)CC5)c(O)c4c3C2=O)NC(=O)/C(C)=C\C=C\[C@H](C)[C@H](O)[C@@H](C)[C@@H](O)[C@@H](C)[C@H](OC(C)=O)[C@@H]1C |  |  |  |  |  |  |  |  |  |  | 66.9
